≈ marks a conversion by molar mass, not a printed value.
Tests used:
[1] = solubility and compatibility of clobazam in a variety of excipients; format: physicochemical
Method: Solubility and compatibility of clobazam were tested in a variety of excipients according to the following functions: (1) alcohols; (2) emollients/oils; (3) esters; (4) fatty acids; (5) fatty acid esters; (6) fatty alcohols; (7) solubilizers; (8) solvents; and (9) surfactants.

[2] = test system: isolated human cadaver epidermis; assay: flux through skin of EVA/PIB multilaminate formulations; format: in vitro ADME
Description: In certain embodiments, the adhesive composition contains the HMW and LMW PIB in weight ratios (HMW PIB: LMW PIB) in the range of about 3-40:97-60, in the range of about 5-25:95-75 and in the range of about 10-20:90-80. The ratio of HMW PIE to LMW PIE that provides an optimal adhesive for a specific drug agent will be dependent upon the identity and concentration of agent being delivered. As an example, in one effective embodiment the PIB adhesive includes 5 wt % HMW PIB material (such as OPPANOL L80, LlOO, and L 140 from BASF) and 95 wt % LMW PIB material (Such as OPPANOL BlO, BI 1, B12, and B13 from BASF).
Optionally, modification of flux of the drug through the PIB can be effected by incorporating in the adhesive material such as micronized, crosslinked polyvinylpyrrolidone (PVP), such as CROSPOVIDONE (Kollidon CL-CY from BASF typically with bulk density between 0.2-0.3 g/cm3 and particle size D90 of 10-20 micron). Such PVP improves the permeability of clobazam material through the PIB layer.
Varying the amounts of CROSPOVIDONE in the PIB adhesive would result in fine-tuning the flux of clobazam to desired levels. For example, multilaminate formulations containing different PVP amounts were tested for the effect of such variation on flux through skin. The multilaminate formulations contained 35 wt % of clobazam base in EVA40, an EVA12 as tie layer and PIB adhesive (5:95 L100:B12 PIB) with 12 wt % or 18 wt % PVP were tested. […] A formulation containing 30 wt % clobazam base and 15 wt % PVP was also tested. The flux of clobazam formulation from this formulation was 6.3μg/(cm^2 h). […] PIB polymers are available commercially, e.g., under the tradename VISTANEX™ from Exxon Chemical. The amount of PVP in the resulting adhesive can be about 1 wt % to 30 wt %, about 5 wt % to 25 wt %, about 8 wt % to 20 wt %.
Transdermal flux can be measured with a standard procedure using Franz cells or using an array of formulations. Flux experiments were done on isolated human cadaver epidermis. With Franz cells, in each Franz diffusion cell a disc of epidermis is placed on the receptor compartment. A transdermal delivery system is placed over the diffusion area (1.98 cm^2) in the center of the receptor. The donor compartment is then added and clamped to the assembly. At time 0, receptor solution (between […] and 24 ml, exactly measured) is added into the receptor compartment and the cell maintained at 35° C. This temperature yields a skin surface temperature of 30-32° C. Samples of the receptor compartment are taken periodically to determine the flux through skin and analyzed by HPLC. An alternative way to test flux is to use an array of patches. In testing flux with an array of transdermal miniature patches, formulations are prepared by mixing stock solutions of each of the mixture components of formulation in organic solvents (about 15 wt % solids), followed by a mixing process. The mixtures are then aliquoted onto arrays as 4-mm diameter drops and allowed to dry, leaving behind solid samples or “dots.” (i.e., mini-patches). The miniature patches in the arrays are then tested individually for flux through skin using a permeation array, whose principle of drug flux from a patch formulation through epidermis to a compartment of receptor medium is similar to that of Franz cells (an array of miniature cells). […] Receptor fluid is auto-sampled from each of the permeation wells at regular intervals and then measured by HPLC to determine the flux of the drug.

[3] = cited from earlier work

CN1C(=O)CC(=O)N(c2ccccc2)c2cc(Cl)ccc21 [clobazam, 7-Chloro-1-methyl-5-phenyl-1,5-dihydro benzo[b][1,4]diazepine-2,4-dione]
solubility among various alcohols ([1]; in 4-allyl-2-ethoxyphenol): good solubility | solubility among various surfactants, polymers and oils ([1]; in Caprylocaproyl polyoxyl-8 glycerides and transcutol P): some solubility | solubility in solvents ([1]; in DCM, chloroform, DMA, DMI, DMSO and NMP): good solubility | solubility among various fatty acids and fatty acid esters ([1]; in methyl L-lactate, levulinic acid and ethyl levulinate): good solubility | average clobazam base flux ([2]; 5:95 L100:B12 PIB adhesive with 20 wt % CROSPOVIDONE): 33.3 μg/(cm^2-h) | flux ([2]; 35 wt % clobazam base in EVA40, EVA12 tie layer, PIB adhesive (5:95 L100:B12) with 12 wt % PVP): 5.4 μg/(cm^2 h) | flux ([2]; 35 wt % clobazam base in EVA40, EVA12 tie layer, PIB adhesive (5:95 L100:B12) with 18 wt % PVP): 7.5 μg/(cm^2 h) | clobazam base average flux ([2]; clobazam 35 wt % in EVA40 drug layer 4-7 mil, PIB adhesive 5 wt % HMW / 95 wt % LMW, 2-3 mil): 5.5 μg/cm^2-h | flux ([2]; formulation with 30 wt % clobazam base and 15 wt % PVP): 6.3 μg/(cm^2 h) | solubility in water ([3]; water at 25° C.): 70 microgram/ml | water Solubility ([3]; water): 164 µg/mL (≈ 545 µM)
